The values that follow come from patent US12697316B2, “Combination therapy with acetyl-leucine and miglustat” (INTRABIO LTD., priority 2019, dated 2026).

Molecules are shown by their SMILES.

Test [1] relates to Npc1^−/− Chinese Hamster Ovary (CHO) cells. The test can be described thus: Lysotracker Green relative lysosomal volume (FACS) in NPC1 null CHO cells. In kind it is cell-based. As to conditions: 1 mM. The protocol:
Wild type and NPC1 null Chinese Hamster Ovary (CHO) cells were kindly provided by Chris Wassif (NIH).
(§1) ADLL and enantiomers (ADLL: Molekula #73891210, ALL: Sigma Aldrich #441511, ADL: Sigma #A0876) were administered as dry admix in powdered mouse diet (PicoLab Rodent Diet 20/5053, LabDiet) at a dose of 0.1 g/kg/day for in vivo studies. Treatment groups for in vivo study consisted of at least 5 mice per group. In vitro studies were conducted with each compound dissolved in PBS to generate a 50 mM stock solution and diluted to a 1 mM working concentration in media (DMEM High Glucose-Gibco #10566016).
Lysotracker Green and Propidium Iodide Staining of CHO cells: In vitro FACS experiments were performed in order to measure relative acidic compartment volume staining live cells with LysoTracker™ Green DND-26 (Thermo Fisher-L7526) at 250 nM for 10 minutes in PBS at RT, centrifuged at 1200 rpm for 10 min and cells resuspended in FACS buffer (PBS, 1% BSA, 0.1% NaN3 sodium azide). Cells were stained with propidium iodide (20 nM) (Invitrogen-P3566) immediately prior to analysis on the FACS for dead cell discrimination. FACS analysis was performed on 10,000 recorded cells using FACS Canto (Becton Dickinson, (BD)) with BD software.

Test [2] concerns Npc1^−/− mice. Briefly: Lipid storage (GSLs, sphingoid bases, cholesterol) in liver of Npc1−/− mice. In kind it is in vivo, mouse. Details: reduction of liver GSL levels (total) / reduction of GM2Gc in liver / reduction of sphingosine in liver / reduction of sphinganine in liver / reduction of GM3Gc in liver: concentration or dose not given beside the values. The settings on record: 59 days of age. The protocol:
as §1
Biochemical and immunohistochemical analyses. Mice were saline perfused under terminal anaesthesia. Tissues for biochemical analysis were snap-frozen on ice-cold isopentane. For immunofluorescent staining, tissues were perfused with 4% PFA followed by PBS and kept in 4% PFA for 24h and stored in PBS containing 20% sucrose longer term. Brains were cut parasagitally (20 micron sections) and stored in 30% ethylene glycol, 30% glycerol 0.1 M sodium phosphate buffer (pH 7.4) at −20° C. Biochemical analysis was performed on water-homogenised tissues (50 mg/ml) and protein content was determined using a BCA protein assay (Thermo Fisher #23227) according to the manufacturer's instructions.
Sphingoid Base Measurements: Sphingoid bases (sphingosine and sphinganine) were extracted from 100 uL tissue homogenates in 500 uL of chloroform:methanol (1:2v/v) followed by sonication for 10 minutes at room temperature. Subsequently, 1 M 500-uL sodium chloride, 500 uL chloroform, and 3 M 100 uL sodium hydroxide were added to the samples, and vortexed every five minutes for 15 minutes at room temperature. Homogenates were centrifuged (13,000 g for 10 minutes) and the lower organic phase retained. Sphingoid bases were purified from the samples by pre-equilibrating SPA-NH2 columns with 2×1 mL chloroform followed by sample elution with 3×300 ul acetone. The samples were dried under nitrogen. Lipids were resuspended in 50 uL pre-warmed ethanol (37° C.) and 50 uL OPA labelling solution (1 mg OPA/20 uL Ethanol/1 uL 2-mercaptoethanol; dilution 1:2000 in 3% boric acid pH 10.5) was added. Samples were kept at room temperature in the dark for 20 minutes and vortexed every 10 minutes. Samples were buffered with 100 uL methanol: 5 mM Tris pH 7 (9:1) and centrifuged at 5,000 g for 2 minutes. Supernatants (150 uL) were loaded onto a reverse phase HPLC. Chromatography was carried out using a mobile phase of 85% acetonitrile/15% H2O at a flow rate of 1.0 ml/min. The orthophthaldehyde-labelled derivatives were monitored at an excitation wavelength of 340 nm and an emission wavelength of 450 nm. Quantification of trace peak area was carried out using EZChrom Elite software v3.2.1.
Glycosphingolipid measurements: Glycosphingolipids were extracted and measured by NP-HPLC according to published methods. Tissue homogenates in chloroform/methanol (C:M) (1:2 v/v) overnight at 4° C. The mixture was centrifuged (3000 rpm/10 min) and 1 mL chloroform and 1 mL PBS were added to the supernatant and centrifuged (3000 rpm/10 min). The lower phase was dried under N2, resuspended in 50 uL C:M 1:3 v/v and combined with the upper phase. Subsequently, GSLs were recovered using C18 Isolute columns (100 mg) (Biotage) pre-equilibrated with 4×1 mL MeOH and 2×1 mL H2O. Samples were washed 3×1 mL H2O and eluted with 1 mL C:M 98:2, 2×1 mL C:M 1:3, 1 mL MeOH. The column eluate was dried under N2, resuspended in 100 uL C:M 2:1, dried again under N2 and resuspended in ceramide glycanase (CGase) buffer (50 mM sodium acetate pH 5.5, 1 mg/mL sodium taurodeoxycholate). 50 mU CGase was added, and samples incubated at 37° C. overnight. Released oligosaccharides were anthranilic acid (2-AA) labelled and purified by mixing with 1 mL Acetonitrile: H2O 97:3 and added to Discovery DPA-6S columns (SUPELCO, # 52625-U) pre-equilibrated with 1 mL acetonitrile, 2×1 mL H2O, and 2×1 mL acetonitrile. Columns were washed with 2×1 mL Acetonitrile: H2O 95:5 v/v, and eluted in 2×0.75 mL H2O. […]

Test [3] relates to Npc1^−/− mice. The test can be described thus: Accelerating Rotarod motor function in Npc1−/− mice. It counts as in vivo, mouse. As to conditions: Npc1−/− mice treated from 3 weeks, assessed at 8 weeks, vs untreated Npc1−/−. (In general: Falling from the rotarod earlier than controls is read as motor impairment.)
Experimental: The mice were housed under non-sterile conditions, with food and water available ad libitum.
The weight and activity of each mouse was recorded weekly until reaching the humane endpoint (defined as a loss of 1 g body weight within 24 h). […] Motor function was measured using an accelerating NG Rota Rod for mice (Ugo Basile) starting from 1 rpm to 10 rpm, accelerating every 30 seconds by one rpm.

As for `CC(=O)N[C@H](CC(C)C)C(=O)O` [ADL, N-acetyl-D-leucine], the “reduction of relative lysosomal volume” value in test [1] (72 h) was 22.3%. In the test with Npc1^−/− mice [2], the “decrease of total free cholesterol in liver” value was determined as 16.2%, the “reduction of sphinganine in liver” value was determined as 38.5% and the “reduction of sphingosine in liver” value is 33.6%. In the test on Npc1^−/− mice [2] (vs untreated Npc1−/−), the “reduction of GM2Gc in liver” value is reported as 29% and the “reduction of liver GSL levels (total)” value is 26.9%. Further, the Rotarod performance result in the test on Npc1^−/− mice [3] is listed as “no significant benefit”.
Take `CC(=O)N[C@@H](CC(C)C)C(=O)O` [ALL, N-acetyl-L-leucine]: the “reduction of relative lysosomal volume” value in test [1] (24 h) is on record as 16%. The “reduction of relative lysosomal volume” value in test [1] (72 h) worked out at 22.8%. In the test on Npc1^−/− mice [2], the “decrease of total free cholesterol in liver” value is on record as 23.4%, the “reduction of sphinganine in liver” value worked out at 37.4% and the “reduction of sphingosine in liver” value is reported as 33.2%. In the test on Npc1^−/− mice [2] (vs untreated Npc1−/−), the “reduction of GM2Gc in liver” value came to 45%, the “reduction of GM3Gc in liver” value is listed as 54.8% and the “reduction of liver GSL levels (total)” value stood at 45.6%. Besides, the Rotarod performance entry in the test on Npc1^−/− mice [3] was “significant improvement”.
As for `CC(=O)NC(CC(C)C)C(=O)O` (racemic) [ADLL, N-acetyl-DL-leucine], the “reduction of relative lysosomal volume” value in test [1] (24 h) was found to be 16.9%. The “reduction of relative lysosomal volume” value in test [1] (72 h) is reported as 24%. Further, in the test with Npc1^−/− mice [2], the “decrease of total free cholesterol in liver” value is given as 18.2%, the “reduction of sphinganine in liver” value worked out at 32.5% and the “reduction of sphingosine in liver” value is given as 29.5%. In the test with Npc1^−/− mice [2] (vs untreated Npc1−/−), the “reduction of GM2Gc in liver” value is given as 26.7% and the “reduction of liver GSL levels (total)” value turned out to be 26.9%. The Rotarod performance entry in the test with Npc1^−/− mice [3] is “significant improvement”.
